From patent US10221163B2 (priority 2015, dated 2019)

Legend:
IMP-1 = IMP-1 (Serratia marcescens, UniProt P52699); test: biochemical; type: biochemical; conditions: fluorescence assay, CCF2-FA substrate, 2 pM enzyme, 2 hours at 25° C.; read-out: IMP-1 IC50
Description: (§1) Enzyme Activity: Determination of IC50
(§2) The Class B enzyme activities were measured in the presence of the test inhibitor in a fluorescence assay against a commercially available substrate consisting of a cephalosporin core linking 7-hydroxycoumarin to fluorescein (CCF2-FA). […] In a 384-well microplate, the test inhibitor was incubated with the metallo-β-lactamase enzyme and the substrate for 2 hours at 25° C. […] The IC50 value was determined from semi-logarithmic plots of enzyme inhibition versus inhibitor concentration, with a curve generated using a 4-parameter fit.

NDM-1 = NDM-1 (Klebsiella pneumoniae, UniProt C7C422); test: biochemical; type: biochemical; conditions: fluorescence assay, CCF2-FA substrate, 1 pM enzyme, 2 hours at 25° C.; read-out: NDM-1 IC50
Description: as §1, §2

[1] = system: Escherichia coli expressing NDM-1 (CLB30005, CLB30016); type: cell-based; conditions: with imipenem 1 μg/ml; for Escherichia coli expressing NDM-1 (CLB30016) MITC95: 95% inhibition of bacterial growth; for Escherichia coli MITC95: NDM-1 strain, 95% inhibition of growth
Description: (§3) Antibiotic Potentiation Activity: Determination of Synergistic Concentration
(§4) The bacterial strains tested included the clinical strains Escherichia coli expressing NDM-1 (CLB30005, CLB30016), Serratia marcescens expressing IMP-1 (CL5741), and Klebsiella pneumoniae expressing VIM-1 (IHMA599644). Inhibitor activity was measured in the presence and absence of imipenem in a 384-well microplate.
(§5) The clinical strains CLB30016, CL5741 and IHMA599644 were grown on trypticase soy agar containing 5% sheep's blood. The bacteria on agar plates were incubated at 35° C. with humidity overnight. The following day, individual colonies from each clinical strain were picked and resuspended in 5 ml saline to attain an OD600 of […], for CLB30016, CL5741 and IHMA599644, respectively. These were further diluted 1:100 into 1.1×CAMHB and used to inoculate the test wells as described below.
(§6) Imipenem in 10 mM 3-(N-morpholino)propanesulfonic acid (MOPS, pH 7) was stored in single use aliquots at −80° C. […] On the day of the assay, 4 μl of antibiotic was added to 45 ul of bacteria followed by 1 μl of test compound and mixed by pipetting and with an orbital shaker. The concentration of antibiotic used in the assay was 1 μg/ml. Microplates were covered and incubated at 35° C. for 22 hours to 24 hours. At the end of the incubation, absorbance was determined using a spectrophotometer.

[2] = system: Klebsiella pneumoniae expressing VIM-1 (IHMA599644); type: cell-based; conditions: for Klebsiella pneumoniae expressing VIM-1 (IHMA599644) MITC95: with imipenem 1 μg/ml, 95% inhibition of bacterial growth; for Klebsiella pneumoniae MITC95: VIM-1 strain IHMA599644, with imipenem 1 μg/ml, 95% inhibition of growth
Description: as §3, §4, §5, §6

[3] = system: Serratia marcescens expressing IMP-1 (CL5741); type: cell-based; conditions: for Serratia marcescens expressing IMP-1 (CL5741) MITC95: with imipenem 1 μg/ml, 95% inhibition of bacterial growth; for Serratia marcescens MITC95: IMP-1 strain CL5741, with imipenem 1 μg/ml, 95% inhibition of growth
Description: as §3, §4, §5, §6

[4] = system: Pseudomonas aeruginosa efflux+ (MB9798), IMP-1; type: cell-based; conditions: concentration restoring susceptibility to imipenem at 2 μg/mL in the presence of a class A, C, D serine β-lactamase inhibitor closely related to relebactam
Excerpt: (§7) The strain background was Pseudomonas aeruginosa PAO1.
(§8) The strain set was then used as a pair to determine the effect of metallo-β-lactamase inhibitors of Formula I on the MIC of imipenem and/or ceftazidime. A fixed concentration of antibiotic was included in standard microbroth MIC tests, usually at the CLSI (Clinical and Laboratory Standards Institute) breakpoint concentration. A fixed amount of a class A/C beta-lactamase inhibitor was also included to inhibit the resident Pseudomonas AmpC enzyme. A serial titration of the metallo-β-lactamase inhibitor was included and the concentration of metallo-β-lactamase inhibitor which restores susceptibility of the strain to the included antibiotic was recorded. That concentration of metallo-β-lactamase inhibitor was then compared between the two strains to determine the fold difference between the efflux+ (MB9798) and efflux− (MB9799) strains. This was taken as an indication of the extent to which the MBLi is subject to efflux.

[5] = system: Pseudomonas aeruginosa efflux− (MB9799), IMP-1; type: cell-based; conditions: concentration restoring susceptibility to imipenem at 2 μg/mL in the presence of a class A, C, D serine β-lactamase inhibitor closely related to relebactam
Excerpt: as §7, §8

IMP-1, sequence (P52699 whole entry, looked up, species assumed): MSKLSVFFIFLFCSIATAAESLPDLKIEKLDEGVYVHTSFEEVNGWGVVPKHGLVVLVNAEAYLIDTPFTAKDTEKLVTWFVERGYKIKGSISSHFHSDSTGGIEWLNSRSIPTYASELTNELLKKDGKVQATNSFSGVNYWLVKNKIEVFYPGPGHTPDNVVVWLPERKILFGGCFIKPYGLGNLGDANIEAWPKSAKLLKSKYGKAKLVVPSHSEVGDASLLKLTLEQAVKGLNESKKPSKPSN
NDM-1, sequence (C7C422 whole entry, looked up, species assumed): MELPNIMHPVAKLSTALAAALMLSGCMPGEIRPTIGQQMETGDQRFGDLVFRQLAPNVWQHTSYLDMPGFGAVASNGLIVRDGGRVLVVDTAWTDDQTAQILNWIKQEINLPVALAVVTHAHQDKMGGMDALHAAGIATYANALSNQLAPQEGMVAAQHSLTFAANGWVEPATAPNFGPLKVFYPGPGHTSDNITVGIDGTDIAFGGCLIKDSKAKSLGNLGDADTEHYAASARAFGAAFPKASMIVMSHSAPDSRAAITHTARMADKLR

SMILES	IC50 (IMP-1)	IC50 (NDM-1)	Escherichia coli expressing NDM-1 (CLB30016) MITC95 [1]	Klebsiella pneumoniae expressing VIM-1 (IHMA599644) MITC95 [2]	Serratia marcescens expressing IMP-1 (CL5741) MITC95 [3]	P. aeruginosa expressing IMP-1, efflux + (MB9798) MITC95 [4]	P. aeruginosa expressing IMP-1, efflux − (MB9799) MITC95 [5]	Escherichia coli MITC95 [1]	Klebsiella pneumoniae MITC95 [2]	Serratia marcescens MITC95 [3]
Nc1nc2c(-c3ccc(S(=O)(=O)NCCN4CCC4)c(S(N)(=O)=O)c3-c3nnn[nH]3)cccc2s1 [Example 21, 4-(2-amino-1,3-benzothiazol-4-yl)-N1-(2-azetidin-1-ylethyl)-3-(1H-tetrazol-5-yl)benzene-1,2-disulfonamide]	0.383 nM	0.0642 nM	6.25 µM	6.25 µM	3.125 µM	1.563 µM	1.563 µM	–	–	–
Nc1nc2c(-c3ccc(S(=O)(=O)NCCN4CCCCC4=O)c(S(N)(=O)=O)c3-c3nnn[nH]3)cccc2s1 [Example 33, 4-(2-amino-1,3-benzothiazol-4-yl)-N1-[2-(2-oxopiperidin-1-yl)ethyl]-3-(1H-tetrazol-5-yl)benzene-1,2-disulfonamide]	0.275 nM	0.0731 nM	25 µM	25 µM	6.25 µM	12.5 µM	3.125 µM	–	–	–
CS(=O)(=O)C1CCN(S(=O)(=O)c2ccc(-c3cccc4sc(N)nc34)c(-c3nnn[nH]3)c2S(N)(=O)=O)C1 (stereo not drawn) [Example 45, 3-(2-amino-1,3-benzothiazol-4-yl)-6-{[3-(methylsulfonyl)pyrrolidin-1-yl]sulfonyl}-2-(1H-tetrazol-5-yl)benzenesulfonamide]	1.65 nM	–	50 µM	25 µM	6.25 µM	25 µM	3.125 µM	–	–	–
Nc1nc2c(-c3ccc(S(=O)(=O)N[C@H]4C[C@H](N)C4)c(S(N)(=O)=O)c3-c3nnn[nH]3)cccc2s1 [Example 71, 4-(2-amino-1,3-benzothiazol-4-yl)-N^1-(trans-3-aminocyclobutyl)-3-(1H-tetrazol-5-yl)benzene-1,2-disulfonamide]	–	0.0612 nM	1.563 µM	3.125 µM	3.125 µM	1.563 µM	1.563 µM	–	–	–
Nc1nc2c(-c3ccc(S(=O)(=O)NCC4(N)CCOC4)c(S(N)(=O)=O)c3-c3nnn[nH]3)cccc2s1.O=CO (stereo not drawn) [Example 114, 3-((4-(2-aminobenzo[d]thiazol-4-yl)-2-sulfamoyl-3-(1H-tetrazol-5-yl)phenylsulfonamido)methyl)tetrahydrofuran-3-aminium formate]	–	0.0649 nM	3.125 µM	6.25 µM	3.125 µM	3.125 µM	3.125 µM	–	–	–
Nc1nc2c(-c3ccc(S(=O)(=O)NC[C@]4(F)CCCNC4)c(S(N)(=O)=O)c3-c3nnn[nH]3)cccc2s1.O=CO [Example 122, (S)-3-(((4-(2-aminobenzo[d]thiazol-4-yl)-2-sulfamoyl-3-(1H-tetrazol-5-yl)phenyl)sulfonamido)methyl)-3-fluoropiperidin-1-ium formate]	0.282 nM	0.0329 nM	1.563 µM	3.125 µM	1.563 µM	3.125 µM	1.563 µM	–	–	–
CN(C)C(=O)c1ccccc1-c1ccc(S(=O)(=O)N[C@@H]2CCNC2)c(S(N)(=O)=O)c1-c1nnn[nH]1 [Example 129, (R)-N,N-dimethyl-4′-(N-(pyrrolidin-3-yl)sulfamoyl)-3′-sulfamoyl-2′-(1H-tetrazol-5-yl)-[1,1′-biphenyl]-2-carboxamide]	9.07 nM	0.279 nM	6.25 µM	12.5 µM	6.25 µM	12.5 µM	3.125 µM	–	–	–
Nc1ccc(-c2ccc(S(=O)(=O)NCCc3c[nH]cn3)c(S(N)(=O)=O)c2-c2nn[nH]n2)cn1 [Example 217, N^1-(2-(1H-imidazol-4-yl)ethyl)-4-(6-aminopyridin-3-yl)-3-(2H-tetrazol-5-yl)benzene-1,2-disulfonamide]	–	0.447 nM	0.3906 µM	3.125 µM	1.563 µM	12.5 µM	1.563 µM	–	–	–
C[N+]1(C)CC(NS(=O)(=O)c2ccc(-c3cccc4[nH]c(N)nc34)c(-c3nn[nH]n3)c2S(N)(=O)=O)C1.O=C([O-])O [Example 245, 3-(4-(2-Amino-1H-benzo[d]imidazol-4-yl)-2-sulfamoyl-3-(2H-tetrazol-5-yl)phenylsulfonamido)-1,1-dimethylazetidin-1-ium hydrogencarbonate]	–	–	–	–	–	1.563 µM	1.563 µM	0.7813 µM	3.125 µM	1.563 µM
Nc1ncc(-c2ccc(S(=O)(=O)N[C@@H]3CCNC3)c(S(N)(=O)=O)c2-c2nn[nH]n2)s1 [Example 284]	0.411 nM	–	–	–	–	0.7813 µM	0.7813 µM	1.563 µM	1.563 µM	0.7813 µM
